In US20120251495A1, “PTERIN BASED THERAPIES FOR INFLAMMATORY CONDITIONS” (priority 2008, published 2012):

Experiments:
Type in all cases: in vivo
[1] = tested on: hepatitis B virus (HBV); experiment: Liver HBV DNA by quantitative PCR in HBV transgenic mice; conditions: female HBV mice; 10 mg/(kg d), per os 14 days
[2] = tested on: hepatitis B virus (HBV); experiment: Liver HBV DNA by Southern blot hybridization in HBV transgenic mice; conditions: 10 mg/(kg d)
Excerpt: Animals. Homozygous adult female and male transgenic HBV mice were used (20.6±2.8 g). The mice were originally obtained from Dr. Frank Chisari (Scripps Research Institute, La Jolla, Calif.) (Guidotti L G, Matzke B, Schaller H & Chisari F V. High-level hepatitis B virus replication in transgenic mice. J Virol 1995; 69:6158-6169) and were subsequently raised in the Biosafety Level 3 (BL-3) area of the AAALAC-accredited USU Laboratory Animal Research Center (LARC). The animals were derived from founder 1.3.32 (Guidotti L G, Matzke B, Schaller H & Chisari F V. High-level hepatitis B virus replication in transgenic mice. J Virol 1995; 69:6158-6169). This study was conducted in accordance with the approval of the Institutional Animal Care and Use Committee of Utah State University.
(§1) Experimental design. DCP was administered per os, once daily for 14 days to randomly assigned HBV transgenic mice at 23, 7.3, and 2.3 mg/(kg d). ADV was used as a positive control at 10 mg/(kg d) using the same treatment schedule and vehicle (0.4% CMC). On day 14, mice were euthanized to collect serum and liver samples to perform liver HBV DNA, liver core and serum HBe assays, serum cytokine/chemokine profiles, and IDO metabolite assays.
Liver HBV DNA assays. Southern blot hybridization and quantitative PCR (qPCR) were performed on liver tissues (Morrey J D, Motter N E, Tam B, Lay M & Fairman J. Efficacy of cationic lipid-DNA complexes (CLDC) on hepatitis B virus in transgenic mice. Antiviral Res 2008; 79:71-79). For Southern blot hybridization, the ratio of the viral DNA bands to the transgene band was used to determine the concentration of viral DNA per host DNA. This calculation was based upon the knowledge that there were 1.3 copies of the transgene present per host cell with this line of transgenic mice. The transgene was used as an internal indicator to calculate the pg of HBV DNA per μg of homozygous cellular host DNA. For qPCR, the assay was run with a series of 10-fold dilutions of pooled liver DNA from HBV transgenic mice to obtain a standard curve. Mean C(t) values were obtained for duplicates of each sample. The mean C(t) values of each sample were used to obtain the log relative DNA values using a formula of the fit line of the standard curve.

[3] = tested on: HBe antigen; experiment: Sera HBeAg ELISA in HBV transgenic mice; conditions: females; 10 mg/(kg d)
Description: as §1
Sera HBeAg. Whole blood samples were obtained during necropsy by cardiac puncture, and processed for an HBeAg-specific ELISA (International Immuno Diagnostics, Foster City Calif.) (Money J D, Motter N E, Taro B, Lay M & Fairman J. Efficacy of cationic lipid-DNA complexes (CLDC) on hepatitis B virus in transgenic mice. Antiviral Res 2008; 79:71-79). Using the known PEI (Paul Ehrlich Institute) units for the calibrator, PEI units were formulated for the serial dilutions of the positive serum. A graph was generated, and extrapolation was used to assign a PEI unit value for each sample.

[4] = tested on: hepatitis B core antigen (HBcAg); experiment: Liver HBcAg assay in HBV transgenic mice; conditions: 10 mg/(kg d)
Description: as §1
Liver HBcAg assay. Liver biopsies were processed for detection of hepatitis B core antigen (HBcAg) (Motley J D, Motter N E, Taro B, Lay M & Fairman J. Efficacy of cationic lipid-DNA complexes (CLDC) on hepatitis B virus in transgenic mice. Antiviral Res 2008; 79:71-79). Three different parameters were obtained from each tissue section. […] The first two parameters were obtained by counting cells surrounding central veins as follows: the total number of cells, the number of cells with stained nuclei, and the number of cells with stained cytoplasms. The identities of the samples were blinded to person counting. The stained nuclei counts or the stained cytoplasm counts were divided by the total cells. Three central vein areas were counted for each slide sample. For the third parameter, a field not in a central vein area was counted for the total number of stained nuclei. One-quarter of the field was counted. Three such fields were counted per liver section. The identity of the samples was blinded to the person reading the slides.

CC(C)(C)C(=O)OCOP(=O)(COCCn1cnc2c(N)ncnc21)OCOC(=O)C(C)(C)C [Adefovir dipivoxil, adefovir dipivoxil, reference compound]
Log HBV DNA (PCR) versus controls [1]: significant treatment decreases | Liver HBV DNA (Southern), Female levels (mean ± SEM) ([2]; female): 3.5 ± 0.55 pg/µg | Liver HBV DNA (Southern), Male levels (mean ± SEM) ([2]; male): 1.5 ± 0.37 pg/µg | HBe antigen (ELISA) versus controls [3]: significant increase | HBcAg Stained nuclei/total, Female levels (mean ± SEM) ([4]; female): 27.7 ± 3.0 | HBcAg Stained nuclei/total, Male levels (mean ± SEM) ([4]; male): 14.1 ± 3.5
